PMC4451689, “A Novel Direct Factor Xa Inhibitory Peptide with Anti-Platelet Aggregation Activity from Agkistrodon acutus Venom Hydrolysates” (Scientific Reports, 2015)
Marks after values point to notes of the source that are not given here. Where a SMILES comes first, the peptide text is derived from it.

Key:
[1] = system: U46619-induced rabbit platelet aggregation; assay: In vitro platelet aggregation assay, U46619-induced; type: cell-based; conditions: U46619 6 μM, rabbit PRP, turbidimetric, preincubated 5 min; 95% CI 415.62–525.95 μM
Protocol: (§1) Figure 5 ACH-11 inhibited ADP- and U46619-induced rabbit platelet aggregation in vitro. PRP was preincubated for 5 min with different concentrations of ACH-11 (0.1, 0.25, 0.5 and 1 mg/mL) or the vehicle. Platelet aggregation was initiated with ADP (10 μM), U46619 (6 μM), thrombin (3 U/mL) or collagen (2.5 μg/mL). Data are the mean ± SD (n = 3), ^****P < 0.0001 and ^*P < 0.05 versus vehicle, analyzed by one-way ANOVA, followed by the Tukey multiple comparison test.
(§2) Institute of Cancer Research (ICR) mice (18–22 g), Sprague-Dawley rats (180–250 g) and New Zealand white rabbits (2–2.5 kg) were purchased from Nanjing Qinglongshan Animal Center (Jiangsu province, China). They were housed in a temperature-controlled room at 25 ± 2 °C and 50 ± 5% relative humidity with a l2 h dark/light cycle. They were given free access to food and water ad libitum. The animals were acclimatized for at least 1 week prior to use. […]
(§3) In vitro platelet aggregation assays were performed according to the turbidimetric method, as described previously. […] The extent of platelet aggregation inhibition by ACH-11 was calculated by the following formula (2): [drawing 2] where X represents the maximum aggregation rate of 5% DMSO-treated PRP and Y represents the maximum aggregation rate of sample-treated PRP. […]

[2] = target: T1, FXa (Homo sapiens, UniProt P00742); assay: Determination of the inhibitory constant for FXa (kinetics, Lineweaver-Burk); type: biochemical
T1 sequence (P00742 235-488 limits assumed): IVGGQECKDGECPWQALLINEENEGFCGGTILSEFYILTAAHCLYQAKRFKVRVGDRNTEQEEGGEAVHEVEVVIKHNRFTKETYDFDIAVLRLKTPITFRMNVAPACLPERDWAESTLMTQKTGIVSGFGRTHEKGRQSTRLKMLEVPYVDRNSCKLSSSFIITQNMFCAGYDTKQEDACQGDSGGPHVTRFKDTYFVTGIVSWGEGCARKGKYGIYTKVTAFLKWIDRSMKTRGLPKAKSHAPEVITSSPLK
T1 sequence (P00742 41-179 partner limits assumed): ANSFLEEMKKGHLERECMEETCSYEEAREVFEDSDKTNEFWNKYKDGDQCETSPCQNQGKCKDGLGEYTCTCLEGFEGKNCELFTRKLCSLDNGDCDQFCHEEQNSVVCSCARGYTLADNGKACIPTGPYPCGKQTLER
Protocol: Figure 3 Kinetic activity of ACH-11 to FXa in vitro. Lineweaver-Burk plot (inset) for ACH-11 kinetics in PBS at pH 8.34 and 37 °C with mixed inhibition in the presence of different concentrations of ACH-11: 0 μM (slope of 0.376), 5 μM (slope of 0.528) and 10 μM (slope of 0.698). The plots represent the mean of 3 independent measurements.
Enzyme kinetic activity was assayed as described earlier, with minor modifications. All enzymatic reactions were carried out in PBS at pH 8.34 and at 37 °C. Freshly prepared FXa at a constant concentration of 1 nM was used in each reaction. ACH-11 was dissolved in 5% DMSO. Activities were measured for 4 different fixed concentrations of substrate (73.5, 147, 294 and 588 μM) in different concentrations of ACH-11 (0, 5 and 10 μM). The rates of the enzymatic reactions were monitored at 405 nm for 20 min using the Powerwave XS (Biotek, USA).

[3] = system: ADP-induced rabbit platelet aggregation; assay: In vitro platelet aggregation assay, ADP-induced; type: cell-based; conditions: ADP 10 μM, rabbit PRP, turbidimetric, preincubated 5 min; 95% CI 185.36–225.02 μM
Protocol: as §1, §2, §3

[4] = system: bleeding time in mice; assay: Bleeding time (tail cutting method); type: in vivo; conditions: n = 10; for bleeding time: tail in saline 37 °C, 20-min recording, mean ± SD
Protocol: Fifteen minutes after the administration of ACH-11 (1, 3 and 9 mg/kg), aspirin (9 mg/kg for 30 min) and the vehicle, a 3 mm-long tail tip was cut from the mice, and the remaining tail was immersed immediately into saline at 37 °C. The accumulated bleeding time (including periods of re-bleeding) was recorded over a 20-min period. Data are presented as the mean ± SD (n = 10). ^****P < 0.0001, ^**P < 0.01 versus vehicle, analyzed by one-way ANOVA, followed by the Tukey multiple comparison test.
(§4) Institute of Cancer Research (ICR) mice (18–22 g), Sprague-Dawley rats (180–250 g) and New Zealand white rabbits (2–2.5 kg) were purchased from Nanjing Qinglongshan Animal Center (Jiangsu province, China). They were housed in a temperature-controlled room at 25 ± 2 °C and 50 ± 5% relative humidity with a l2 h dark/light cycle. They were given free access to food and water ad libitum. The animals were acclimatized for at least 1 week prior to use. All experiments were carried out in accordance with the guidelines and the regulations of the Ethical Committee of the China Pharmaceutical University. The protocols were approved by the Institutional Animal Care and Use Committee of the China Pharmaceutical University.
Bleeding time of the mice was measured by a tail cutting method as described previously. Mice were randomly divided into five groups (both sexes, 10 per group), including a vehicle group, a reference drug group (9 mg/kg of aspirin-treated) and three sample groups (1, 3 and 9 mg/kg of ACH-11-treated).

[5] = system: ADP-induced acute pulmonary thrombosis in mice; assay: ADP-induced acute pulmonary thrombosis in mice; type: in vivo, ICR mice; conditions: aspirin 20 mg/kg, ADP 300 mg/kg i.v.
Protocol: To examine whether ACH-11 exerted antithrombotic effects in vivo, the peptide was challenged in an acute pulmonary thrombosis model in mice. Aspirin, which is a clinical anti-thrombosis medicine that acts as a selective COX-1 inhibitor, was used as a positive control. In this model, small thrombi formed by intravenous injection of ADP (300 mg/kg) occluded pulmonary vessels, resulting in paralysis or death of the mice.
as §4
ADP-induced acute pulmonary thrombosis in mice was performed as described previously. Sixty ICR mice (18–22 g) were fasted overnight and randomly divided into 6 groups, with 10 mice per group (males and females in half). […]

[6] = system: arterio-venous shunt thrombosis in rats; assay: In vivo arterio-venous shunt thrombosis in rats; set-up: species or system Sprague-Dawley rats; conditions: aspirin 20 mg/kg, rat; mean ± SEM, n = 6
Protocol: Figure 6 ACH-11 inhibited arterio-venous shunt thrombosis in rats in vivo. After the administration of ACH-11 (0.33, 1 and 3 mg/kg), aspirin and the vehicle, rats were anesthetized by intraperitoneal injection of chloral hydrate (350 mg/kg), and an arterio-venous shunt tube (12 cm, containing 10-cm long of 4 braided silk thread) was installed between the right carotid artery and left jugular vein of each rat. After 20 min, the silk thread was removed from the shunt tube, and its wet weight was immediately measured. The dry weight of the thread was measured 6 h later at room temperature. The wet and dry weights of the formed thrombi were determined by subtracting the pre-experiment weights of the wet and dry 6-cm threads, respectively. Data are the mean ± SD, ^*P < 0.05, ^***P < 0.001 and ^****P < 0.0001 versus vehicle, n = 6, analyzed by one-way ANOVA, followed by the Tukey multiple comparison test. […]
Antithrombotic activity of ACH-11 in vivo was determined in a rat arterio-venous shunt thrombosis model as described previously[39] with a minor modification. […] Its wet weight was measured immediately. The dry weight of thread was measured 6 h later at room temperature. The wet and dry weights of the thrombi were determined by subtracting the pre-experimental weights of the wet and dry 6-cm threads, respectively.

[7] = target: T1, FXa; assay: Inhibition of amidolytic activity of FXa (chromogenic substrate S-2222); type: biochemical; conditions: sample dissolved at 5 mg/mL, PBS pH 8.34, 37 °C, n = 3, compared with the other fractions/hydrolysates
Protocol: Figure 1 Selection of enzymatic hydrolysis conditions and bioassay-directed chromatographic separation of the FXa inhibitory peptide. (a) FXa inhibitory activities of Agkistrodon acutus venom hydrolysates obtained by treatment with pepsin, papain, neutrase and alcalase at 1, 2, 3, 4, 8, 12 h intervals. (b) Agkistrodon acutus venom hydrolysate produced by neutrase (3 h) was separated on a gel filtration column packed with Sephadex G-50 (2.6 × 100 cm). The hydrolysate was eluted by distilled water at a flow rate of 0.6 mL/min, collecting fractions of 3.6 mL. (c) The FXa inhibitory activities of fractions A-E. (d) Fraction C was separated on a Hedera ODS-2 column (20 × 250 mm). (e) The FXa inhibitory activities of fractions C1-C8. […]
The lyophilized neutrase hydrolysate (0.2 g) was dissolved in 10 mL of distilled water and applied to a Sephadex G-50 column (2.6 × 100 cm) equilibrated with distilled water and eluted with the same buffer at a flow rate of 0.6 mL/min. The eluents were monitored at 280 nm and were collected at 6 min intervals. […] The UV absorbance was monitored at 214 nm.
Inhibition of the amidolytic activity of FXa was analyzed by a method described previously, with minor modifications. Enzymatic activity was measured in PBS at pH 8.34 using the chromogenic substrate method. […] The absorbance-time curve and the slope of the curve (Vi) were used to represent the activity of the enzyme. […]

CC[C@H](C)[C@H](NC(=O)[C@H](CCCNC(=N)N)NC(=O)[C@@H]1CCCN1C(=O)[C@H](Cc1ccccc1)NC(=O)[C@@H](NC(=O)[C@@H](N)CC(C)C)[C@@H](C)O)C(=O)N[C@H](C(=O)N[C@@H](Cc1ccccc1)C(=O)N[C@H](C(=O)N[C@@H](CC(C)C)C(=O)NCC(=O)O)C(C)C)C(C)C [ACH-11, LTFPRIVFVLG] (H-LTFPRIVFVLG-OH)
IC50 [1]: 468 µM
Ki ([2]; PBS pH 8.34, 37 °C, FXa 1 nM, S-2222 73.5-588 μM, ACH-11 0, 5, 10 μM, 5% DMSO, mixed inhibition, mean of 3 independent measurements, read-out: Ki value for FXa inhibition towards S-2222): 9.02 µM
change in Vmax and Km of FXa towards S-2222 ([2]; in the presence of ACH-11, PBS pH 8.34, 37 °C): A decrease in the Vmax value with a subsequent increase in the Km value
IC50 [3]: 204 µM
bleeding time ([4]; ACH-11 1 mg/kg, 15 min after administration): 10.71 ± 2.98 min
bleeding time ([4]; ACH-11 3 mg/kg, 15 min after administration): 11.73 ± 2.68 min
bleeding time ([4]; ACH-11 9 mg/kg, 15 min after administration): 14.01 ± 1.88 min
bleeding time (effect in words) ([4]; ACH-11 3 and 1 mg/kg, compared with vehicle): did not significantly prolong the bleeding time

CC(=O)Oc1ccccc1C(=O)O [Aspirin, aspirin]
Numbers of lethal/total ([5]; vehicle 9/10, P = 0.0055 versus vehicle): 2/10
Protection rate ([5]; vehicle 10%, P = 0.0055 versus vehicle, n = 10): 80^** %
reduction of thrombus weight [6]: 59.10 ± 2.98%
bleeding time ([4]; aspirin 9 mg/kg, 30 min after administration): 17.03 ± 2.86 min

LTFPRIVFVLG [fraction C4, RP-HPLC fraction of fraction C, purity greater than 96%; peptide … (natural ACH-11)]
FXa inhibitory activity (in words) [7]: displayed the highest FXa inhibitory activity
